Test results published in ChEMBL document CHEMBL1201862, “PubChem BioAssay data set” (2004).
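Interpolation was linear, between the two tested concentrations surrounding the appropriate level; five concentrations were tested over 48 hours in 96-well plates. GI50: concentration for 50% inhibition of growth.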 The source made the active and inactive calls. Rule as the data show it: active = GI50 up to about 1.1 µM and inactive = higher.

Legend:
Assay in all cases: NCI tumour cell line growth inhibition, 48 h
HCT-15 = tested on: HCT-15
SK-OV-3 = tested on: SK-OV-3
786-0 = tested on: 786-0
COLO 205 = tested on: COLO 205
OVCAR-3 = tested on: OVCAR-3
HOP-92 = tested on: HOP-92
MDA-N = tested on: MDA-N
OVCAR-4 = tested on: OVCAR-4
HOP-62 = tested on: HOP-62
IGROV-1 = tested on: IGROV-1
HCC 2998 = tested on: HCC 2998
SR = tested on: SR
PC-3 = tested on: PC-3
RXF 393 = tested on: RXF 393
BT-549 = tested on: BT-549
CCRF-CEM = tested on: CCRF-CEM
MDA-MB-231 = tested on: MDA-MB-231
LOX IMVI = tested on: LOX IMVI
A498 = tested on: A498

| SMILES | GI50 (HCT-15) | GI50 (SK-OV-3) | GI50 (786-0) | GI50 (COLO 205) | GI50 (OVCAR-3) | GI50 (HOP-92) | GI50 (MDA-N) | GI50 (OVCAR-4) | GI50 (HOP-62) | GI50 (IGROV-1) | GI50 (HCC 2998) | GI50 (SR) | GI50 (PC-3) | GI50 (RXF 393) | GI50 (BT-549) | GI50 (CCRF-CEM) | GI50 (MDA-MB-231) | GI50 (LOX IMVI) | GI50 (A498) |
| --- | --- | --- | --- | --- | --- | --- | --- | --- | --- | --- | --- | --- | --- | --- | --- | --- | --- | --- | --- |
| Cc1nn(C(=O)c2ccc(Cl)cc2)c2c1C(c1ccccc1)SC(=N)N2 (stereo not given) | > 10 µM | > 10 µM (inactive) | > 10 µM (inactive) | > 10 µM (inactive) | > 10 µM (inactive) | > 10 µM (inactive) | > 10 µM (inactive) | > 10 µM (inactive) | > 10 µM (inactive) | > 10 µM (inactive) | > 10 µM (inactive) | > 10 µM (inactive) | > 10 µM (inactive) | > 10 µM (inactive) | > 10 µM (inactive) | > 10 µM (inactive) | > 10 µM (inactive) | > 10 µM (inactive) | – |
| O=C([O-])C(O)C(O)C(=O)O.[K+] (stereo not given) [POTASSIUM HYDROGENTARTRATE] | > 100 µM | > 100 µM (inactive) | > 100 µM (inactive) | > 100 µM (inactive) | > 100 µM (inactive) | > 100 µM (inactive) | > 100 µM (inactive) | > 100 µM (inactive) | > 100 µM (inactive) | > 100 µM (inactive) | – | > 100 µM (inactive) | > 100 µM (inactive) | > 100 µM (inactive) | > 100 µM (inactive) | > 100 µM (inactive) | > 100 µM (inactive) | > 100 µM (inactive) | > 100 µM (inactive) |
| CC1(C)OCC(C2OC(On3nnc4ccc(Cl)cc43)C3OC(C)(C)OC23)O1 (stereo not given) | > 100 µM | > 100 µM (inactive) | > 100 µM (inactive) | > 100 µM (inactive) | > 100 µM (inactive) | > 100 µM (inactive) | > 100 µM (inactive) | > 100 µM (inactive) | > 100 µM (inactive) | > 100 µM (inactive) | – | > 100 µM (inactive) | > 100 µM (inactive) | > 100 µM (inactive) | > 100 µM (inactive) | > 100 µM (inactive) | > 100 µM (inactive) | > 100 µM (inactive) | 11.7 µM (inactive) |
| Cc1ccc(/N=N/c2c(C)c(C#N)c(=S)n(C3OC(CO)C(O)C(O)C3O)c2C)cc1 (stereo not given) | 39 µM | 34.7 µM (inactive) | 28.4 µM (inactive) | 38.7 µM (inactive) | 29.6 µM (inactive) | 11.7 µM (inactive) | 36.4 µM (inactive) | 34.4 µM (inactive) | 34.3 µM (inactive) | 38.9 µM (inactive) | 21.7 µM (inactive) | 26 µM (inactive) | 28.2 µM (inactive) | 26.1 µM (inactive) | 26.2 µM (inactive) | 20 µM (inactive) | 24.4 µM (inactive) | 18.2 µM (inactive) | – |
| COc1ccccc1NS(=O)(=O)c1ccc2ncn(NS(=O)(=O)c3ccc(Cl)cc3)c(=O)c2c1 | > 100 µM | > 100 µM (inactive) | > 100 µM (inactive) | > 100 µM (inactive) | > 100 µM (inactive) | > 100 µM (inactive) | 67.9 µM (inactive) | > 100 µM (inactive) | > 100 µM (inactive) | > 100 µM (inactive) | > 100 µM (inactive) | 63.8 µM (inactive) | 5.51 µM (inactive) | – | > 100 µM (inactive) | 54.7 µM (inactive) | > 100 µM (inactive) | > 100 µM (inactive) | – |
| CCCCOc1ccc(S(=O)(=O)N/C(N)=N/c2ccc(Cl)cc2)cc1 | 14 µM | 19.1 µM (inactive) | 14.7 µM (inactive) | 25.2 µM (inactive) | 14.9 µM (inactive) | 10.8 µM (inactive) | 16.2 µM (inactive) | 10.2 µM (inactive) | 20.2 µM (inactive) | 14.7 µM (inactive) | – | 3.27 µM (inactive) | 17.3 µM (inactive) | 16.1 µM (inactive) | 17.8 µM (inactive) | – | 15.6 µM (inactive) | 17.3 µM (inactive) | 12.1 µM (inactive) |
| CCOc1cn(C2CC(O)C(CO)O2)c(=O)[nH]c1=O (stereo not given) | > 100 µM | > 100 µM (inactive) | > 100 µM (inactive) | > 100 µM (inactive) | > 100 µM (inactive) | > 100 µM (inactive) | > 100 µM (inactive) | > 100 µM (inactive) | > 100 µM (inactive) | > 100 µM (inactive) | > 100 µM (inactive) | – | > 100 µM (inactive) | > 100 µM (inactive) | > 100 µM (inactive) | > 100 µM (inactive) | > 100 µM (inactive) | > 100 µM (inactive) | 45.8 µM (inactive) |
| Cc1ccc(C(=O)OC(C)C)cc1/N=N/N(C)C | > 100 µM | > 100 µM (inactive) | > 100 µM (inactive) | > 100 µM (inactive) | 46 µM (inactive) | > 93.3 µM (inactive) | > 100 µM (inactive) | > 75.2 µM (inactive) | 97.5 µM (inactive) | > 100 µM (inactive) | > 100 µM (inactive) | > 100 µM (inactive) | 99.1 µM (inactive) | – | > 100 µM (inactive) | 75.2 µM (inactive) | > 100 µM (inactive) | > 70 µM (inactive) | – |
| NC1=CN2c3ccccc3N(CC(=O)N3CCOCC3)C2C=C1 (stereo not given) | > 100 µM | > 100 µM (inactive) | > 100 µM (inactive) | > 100 µM (inactive) | – | > 100 µM (inactive) | > 100 µM (inactive) | > 100 µM (inactive) | > 100 µM (inactive) | > 100 µM (inactive) | – | > 100 µM (inactive) | > 100 µM (inactive) | > 100 µM (inactive) | > 100 µM (inactive) | > 100 µM (inactive) | > 100 µM (inactive) | > 100 µM (inactive) | 52.1 µM (inactive) |
| Cc1cc2c(c(=O)o1)C1=S(SC(c3ccccc3)=C1)S2 (stereo not given) | > 100 µM | 23.8 µM (inactive) | 15 µM (inactive) | > 100 µM (inactive) | 24.9 µM (inactive) | 20.8 µM (inactive) | > 100 µM (inactive) | 29 µM (inactive) | 20.8 µM (inactive) | 55.5 µM (inactive) | – | 18.3 µM (inactive) | 24.4 µM (inactive) | 20.2 µM (inactive) | > 100 µM (inactive) | > 100 µM (inactive) | 57.4 µM (inactive) | 87.1 µM (inactive) | 13.9 µM (inactive) |
| N=C1C(O)C2(I)c3ccccc3N3C(=N)C(O)C4c5ccccc5N1C4C32 (stereo not given) | 32.3 µM | 40.6 µM (inactive) | 30.8 µM (inactive) | 26.2 µM (inactive) | 32.1 µM (inactive) | 37.4 µM (inactive) | 42.7 µM (inactive) | 16 µM (inactive) | 38.3 µM (inactive) | 19.9 µM (inactive) | – | 34.3 µM (inactive) | 41.7 µM (inactive) | > 100 µM (inactive) | > 100 µM (inactive) | 2.3 µM (inactive) | 26.4 µM (inactive) | 39 µM (inactive) | > 100 µM (inactive) |
| CCCCNc1c(CN)cnc2cc(Cl)ccc12 | 17.1 µM | 14.3 µM (inactive) | 16.7 µM (inactive) | 7.48 µM (inactive) | 15 µM (inactive) | 15.9 µM (inactive) | 16.1 µM (inactive) | 16.6 µM (inactive) | 14.1 µM (inactive) | 14.7 µM (inactive) | 2.73 µM (inactive) | – | 16.8 µM (inactive) | 14.5 µM (inactive) | 16.6 µM (inactive) | 4.7 µM (inactive) | 15.3 µM (inactive) | 15.4 µM (inactive) | 15.4 µM (inactive) |
| C/C(=N\Nc1nc2ccccc2o1)c1cc(C)ncn1 | 0.043 µM | 0.0675 µM (active) | < 0.0275 µM (active) | < 0.01 µM (active) | < 0.0223 µM (active) | – | 2.42 µM (inactive) | 0.136 µM (active) | 0.11 µM (active) | 0.0275 µM (active) | 11 µM (inactive) | 0.124 µM (active) | 0.0383 µM (active) | 1.34 µM (inactive) | 0.305 µM (active) | < 0.01 µM (active) | < 0.0203 µM (active) | – | > 100 µM (inactive) |
| CSc1c(C(=O)Nc2ccc(C)cc2)c(N)n(N)c(=O)c1C#N | > 100 µM | > 100 µM (inactive) | > 100 µM (inactive) | > 100 µM (inactive) | > 100 µM (inactive) | – | > 100 µM (inactive) | > 100 µM (inactive) | – | > 100 µM (inactive) | > 100 µM (inactive) | > 100 µM (inactive) | > 100 µM (inactive) | > 100 µM (inactive) | > 100 µM (inactive) | > 100 µM (inactive) | > 100 µM (inactive) | > 100 µM (inactive) | > 100 µM (inactive) |
| COCOc1cc(OC)ccc1C=O | 36.4 µM | 62.4 µM (inactive) | 36.6 µM (inactive) | 24.9 µM (inactive) | 20.9 µM (inactive) | – | 5.58 µM (inactive) | 78 µM (inactive) | 72.3 µM (inactive) | 33.1 µM (inactive) | 24.2 µM (inactive) | 11.3 µM (inactive) | 21.8 µM (inactive) | 14.7 µM (inactive) | 58.1 µM (inactive) | 20.7 µM (inactive) | 51.3 µM (inactive) | 53 µM (inactive) | – |
| COC(NC(=O)Nc1ccc(C)cc1)(C(F)(F)F)C(F)(F)F | – | 26.1 µM (inactive) | 54.2 µM (inactive) | 18.7 µM (inactive) | 42.8 µM (inactive) | 33 µM (inactive) | 26.4 µM (inactive) | 34.2 µM (inactive) | 42.8 µM (inactive) | 26.5 µM (inactive) | – | 30.9 µM (inactive) | 13.9 µM (inactive) | 23.1 µM (inactive) | 22.9 µM (inactive) | 2.67 µM (inactive) | 32.2 µM (inactive) | 3.08 µM (inactive) | 30.3 µM (inactive) |
